The target of experiment [1] is human recombinant dopamine D3 receptor (Homo sapiens (Human), UniProt P35462). Description: Test of binding inhibition for the human dopamine D3 receptor (SPA, [3H]-Metylspiperone). The following applies: Jump-In HEK cell membranes, 2 nM [3H]-Metylspiperone, 120 min at 25° C.; read-out: hD3_Ki. The procedure: Cell membranes: Jump-In HEK cell membranes expressing human recombinant dopamine D3 receptor (4 μg/well)
(§1) Non-specific ligand: (final concentration) 10 μM Butaclamol [(+)-Butaclamol Hydrochloride, D033, Sigma]
(§2) SPA beads: SPA beads [WGA PVT SPA Scintillation Beads, RPNQ0001 (500 mg), RPNQ0060 (2 g), PerkinElmer] (0.2 mg/well)
(§3) Incubation time and temperature: 120 min at 25° C.
(§4) Butaclamol or the compounds of the present invention were weighed and DMSO was added to make a 10 mM solution. This solution was diluted to each concentration.
[^3H]-Metylspiperone was weighed and the buffer solution was added to make a 6 nM solution.
SPA beads were weighed and stirred in water to make a 50 mg/mL solution. Using this solution, a mixed solution with the cell membranes was prepared.
Jump-In HEK Cell membranes (final reaction amount: 4 μg/well), SPA beads (final reaction amount: 0.2 mg/well) and Tris-HCl buffer were mixed and the mixed solution was left still for more than 60 min at 4° C. Then, 50 μL of the mixture was added to each well of the plate. In addition, 25 μL of 6 nM [^3H]-Metylspiperone (final concentration: 2 nM) was added to each well. […] Non-specific binding was calculated based on the radioactivity of [^3II]-Metylspiperone in the presence of 10 μM non-labeled Butaclamol. The total binding was calculated based on the radioactivity of [^3H]-Metylspiperone in the absence of the compounds of the present invention (Vehicle). The Ki values were calculated from dose-response curves.
Binding activities of the compounds of the present invention were calculated from the following Binding Inhibition Rate (%): Inhibition Rate (%)=[1−(c−a)(b−a)]*100(%) • a: Average cpm of non-specific binding • b: Average cpm of total binding • c: Cpm in the presence of each test compound

Experiment [2] addresses human recombinant dopamine D2 receptor (Homo sapiens (Human), UniProt P14416). Nature of the experiment: Test of binding inhibition for the human dopamine D2 receptor (SPA, [3H]-Metylspiperone). To be noted: Jump-In HEK cell membranes, 1.2 nM [3H]-Metylspiperone, 120 min at 25° C.; read-out: hD2_Ki. On the procedure:
Test Example 1: Test of Binding Inhibition for the Human Dopamine D2 Receptor
Cell membranes: Jump-In HEK cell membranes expressing human recombinant dopamine D2 receptor (2 μg/well)
Buffer solution: 50 mM Tris-HCl (35409-45, Nacalai Tesque) (pH 7.4) containing 120 mM NaCl (31320-05, Nacalai Tesque), 1 mM MgCl2.6H2O (20909-55, Nacalai Tesque). 5 mM KCl (28514-75, Nacalai Tesque) and 2 mM CaCl2 (067-31, Nacalai Chemical, Ltd)
Radioligand: (final concentration) 1.2 nM [^3H]-Metylspiperone ([^3H—N-methyl-]-Metylspiperone, NET-856, 83.8 Ci/mmol, PerkinElmer)
as §1, §2, §3, §4
[^3H]-Metylspiperone was weighed and the buffer solution was added to make a 3.6 nM solution.
SPA beads were weighed and stirred in water to moke a 50 mg/mL solution. Using this solution, a mixed solution with the cell membranes was prepared.
225 nL of the solutions of the non-specific ligand or the compounds of the present invention at each concentration (in case of vehicle, final concentration 0.3% DMSO) were added in each well of a 384-well white/clear bottom microplate (3706, Corning). Jump-In HEK Cell membranes (final reaction amount: 2 μg protein/well), SPA beads (final reaction amount: 0.2 mg/well) and the buffer were mixed and the mixed solution was left still for more than or equal to 1 h at 4° C. Then, 50 μL of the mixture was added to each well of the plate. In addition, 25 μL of 3.6 nM [^3H]-Metylspiperone (final concentration: 1.2 nM) was added to each well. The plate was sealed by putting TopSeal-A 96/384 well (6050185, PerkinElmer) on the top of the plate, mixed using stirring deaerator (Welltornado, FK-62, Sakaki) and incubated for 120 min at 25° C. After incubation, the radioactivity of [^3H]-Metylspiperone which was binded to D2 receptor was determined by liquid scintillation counter (1450 Microbeta, PerkinElmer) in each well. Non-specific binding was calculated based on the radioactivity of [^3H]-Metylspiperone in the presence of 10 μM non-labeled Butaclamol. The total binding was calculated using the radioactivity of [^3H]-Metylspiperone in the absence of the compounds of the present invention (Vehicle). The Ki values were calculated from dose-response curves.
Binding activities of the compounds of the present invention were calculated from the following Binding Inhibition Rate (%): Inhibition Rate (%)=[1−(c−a)(b−a)]×100(%) • a: Average cpm of non-specific binding • b: Average cpm of total binding • c: Cpm in the presence of each test compound

Experiment [3] relates to impulsivity in rat. Nature of the experiment: Effect of suppressing impulsivity in rat (T-maze delayed large reward, i.p.). It is filed as in vivo. To be noted: 3 mg/kg, total 50 trials of 5 days, versus vehicle control group. From the text:
Test Example 3-1: Effect of Suppressing Impulsivity in Rat
Male Crl: WI rats were obtained at post-natal day 14 and weaning was occurred at post-natal day 21. Starting from then, the rats were housed 2-3 per cage and food-restricted (Day 1). The feeding amount was 5 g/day at post-natal day 21-28 (Day 1-8), 8.5 g/day at post-natal day 29-32 (Day 9-12), and 10 g/day at post-natal day 33-36 (Day 13-16), preventing their body weight from being 60% or less of the weight of the free feeding rats.
4 days after the beginning of the food restriction (Day 5), pellets were put on goal boxes located in the left-side and the right-side of T-maze. Then, the rats were allowed to freely explore the T-maze-box for 5 min to get habituated to the T-maze box and learn that the pellets were put on the goal boxes located in the left-side and the right-side. For 4 consecutive days from the next day (Day 6-9), one pellet (20 mg×1) was put in one side of the goal box as a small reward, and 5 pellets (20 mg×5) were put in the other side of the goal box as a large reward, and the rats were trained to learn their positions. Each rat underwent 10-trial per day trainings. […] The evaluations of the drug efficacy were started on Day 12. […]

Some results are limits rather than exact numbers.

human recombinant dopamine D3 receptor, sequence (P35462 whole entry): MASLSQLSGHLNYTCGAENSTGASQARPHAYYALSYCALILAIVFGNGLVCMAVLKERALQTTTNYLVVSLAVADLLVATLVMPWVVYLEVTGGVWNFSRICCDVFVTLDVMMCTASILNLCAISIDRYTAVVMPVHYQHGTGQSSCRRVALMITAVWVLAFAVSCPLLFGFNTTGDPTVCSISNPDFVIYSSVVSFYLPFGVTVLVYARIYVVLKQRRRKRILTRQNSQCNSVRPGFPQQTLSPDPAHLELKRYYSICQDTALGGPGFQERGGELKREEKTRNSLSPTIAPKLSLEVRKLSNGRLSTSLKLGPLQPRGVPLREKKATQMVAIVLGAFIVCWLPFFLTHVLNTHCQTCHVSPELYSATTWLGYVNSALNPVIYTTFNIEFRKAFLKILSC
human recombinant dopamine D2 receptor, sequence (P14416 whole entry): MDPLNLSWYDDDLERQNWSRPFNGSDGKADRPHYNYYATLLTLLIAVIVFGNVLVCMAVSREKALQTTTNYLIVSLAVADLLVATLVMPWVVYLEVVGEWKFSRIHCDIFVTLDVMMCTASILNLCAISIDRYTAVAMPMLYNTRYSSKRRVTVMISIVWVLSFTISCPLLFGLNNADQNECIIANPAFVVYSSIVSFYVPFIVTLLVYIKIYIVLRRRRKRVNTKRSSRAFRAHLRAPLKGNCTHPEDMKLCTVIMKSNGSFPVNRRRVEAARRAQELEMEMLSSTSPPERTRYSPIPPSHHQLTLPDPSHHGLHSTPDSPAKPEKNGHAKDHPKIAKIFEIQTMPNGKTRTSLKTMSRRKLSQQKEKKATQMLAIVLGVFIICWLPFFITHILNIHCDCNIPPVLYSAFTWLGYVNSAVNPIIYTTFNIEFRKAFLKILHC

As for `Cc1ncc(CC(=O)N[C@H]2CC[C@H](CCN3CCc4cc(C)c(OCC(F)F)nc4CC3)CC2)s1` [III-008], the Ki in experiment [1] is 0.25 nM; in experiment [2] it was 480 nM. As to `O=C(N[C@H]1CC[C@H](CCN2CCc3sc(OCC(F)F)nc3C2)CC1)c1cccc2ncccc12` [Compound I-085], in experiment [3], the “number of choices for the large reward” value is “significantly increased”. In the case of `Cc1cc(CC(=O)N[C@H]2CC[C@H](CCN3CCc4sc(N5CC(F)(F)C5)nc4C3)CC2)on1` [Compound I-098], the Ki in experiment [1] came out at 0.12 nM; in experiment [2], 1600 nM. In the same order, the values of `Cc1cn2c(C(=O)N[C@H]3CC[C@H](CCN4CCc5ccc(OCC(F)F)nc5CC4)CC3)cccc2n1` [II-057] are 0.014 nM and more than 1700 nM. The like results for `COc1cc(CCC(=O)N[C@H]2CC[C@H](CCN3CCc4ccc(OCC(F)F)nc4CC3)CC2)on1` [II-041] were, in that order, 0.058 nM and 290 nM. With `Cc1ncc(CC(=O)N[C@H]2CC[C@H](CCN3CCc4cnc(OCC(F)F)nc4CC3)CC2)s1` [II-062], the Ki in experiment [1] is 1.1 nM; in experiment [2] it was more than 1700 nM.

The record behind these values is patent US11345716B2, “Nitrogen-containing condensed ring compounds having dopamine D3 antagonistic effect” (Shionogi & Co., Ltd., priority 2016, dated 2022).
